Laboratory results reported in patent EP0504254B1, “THE USE OF GIBBERELLINS FOR THE MANUFACTURE OF A MEDICAMENT FOR THE TREATMENT OF PROSTATITIS” (ODEN, Per, priority 1989, dated 1991).

What was measured:
[1] = tested on: male adult uncastrated rats; assay: Dihydrotestosterone-induced hypertrophic growth of the prostatic gland in rats; assay type: in vivo; settings: daily 50 mg dihydrotestosterone alone for three months
Method: The weight of the prostate was 814 mg, which was equivalent to about 0.34 % of the total body weight. When the rats were simultaneously given a daily dosis of 100 µg of gibberellins GA₂₀ and GA₃₀, an increase in prostate weight was not detected. The weight of the prostate was in this case 582 mg, which was equivalent to 0.20 % of the total body weight.

[2] = tested on: castrated rats; settings: C.R. Séances Soc. Biol. Filiales 163 (1969); cited from earlier work

SMILES | weight of the prostate [1] [mg] | weight of the prostate, equivalent % of the total body weight [1] | prostate weight [2]
C[C@]12CCC(=O)C[C@@H]1CC[C@@H]1[C@@H]2CC[C@]2(C)[C@@H](O)CC[C@@H]12 [dihydrotestosterone] | 814 | about 0.34% | 
C=C1C[C@]23C[C@@]1(O)CC[C@H]2[C@@]12C=C[C@H](O)[C@@](C)(C(=O)O1)[C@H]2[C@@H]3C(=O)O [gibberellic acid] |  |  | restitution of prostate weight
